US12673063B2, “Methods and materials for treatment of fibrosis” (Massachusetts Eye and Ear Infirmary, priority 2020, dated 2026)

Legend:
[1] = tested on: A549 cells; assay: CyQUANT Direct Cell Proliferation Assay, A549; type: cell-based, human; conditions: for percent live cells compared to vehicle treated: 48 hours, Ro5-3335 150 μM, Ro24-7429 50 μM-200 μM, Pirfenidone 500 μg/ml, Nintedanib 5 μM; for anti-proliferative effect: 150 μM
Protocol: Human type II alveolar epithelial cells (A549) were a generous gift from Dr. Lagares (Mass General Hospital). Cells were maintained in low glucose-DMEM containing 10% FBS, 2 mM L-glutamine, 100 U/ml penicillin and 100 μg/ml streptomycin at 37° C. in a humidified 5% C02 atmosphere. Confluent cultures of cells were pretreated with Ro24-7429 for 24 hours followed by stimulation with 5 ng/ml of TGF-β1.
(§1) We tested the effect of RUNX1 inhibition on the proliferation of a human alveolar basal epithelial cell line (A549), primary human-derived pulmonary alveolar epithelial cells (HPAEpi), and in human-derived primary culture lung fibroblasts (HLF). For specific analyses we used escalating doses of Ro24-7429 (50-200 μM), Ro5-3335 (150 μM), pirfenidone (500 μg/ml) and nintedanib (5 μM), the latter two are currently approved drugs for IPF.

[2] = tested on: human lung fibroblasts (HLF); assay: CyQUANT Direct Cell Proliferation Assay, HLF; type: cell-based; conditions: 72 hours, 150 μM
Source text: as §1, with “We conducted mechanistic studies in cell culture to examine the cellular and molecular mechanisms underlying the robust effects of RUNX1 inhibition in the protection against bleomycin-induced lung injury. We” for “We”

[3] = tested on: A549 cells; assay: Lactate dehydrogenase (LDH) cell death assay, A549; type: cell-based; conditions: A549; Ro24-7429 50-200 μM, Ro5-3335 150 μM
Protocol: Human type II alveolar epithelial cells (A549) were a generous gift from Dr. Lagares (Mass General Hospital). Cells were maintained in low glucose-DMEM containing 10% FBS, 2 mM L-glutamine, 100 U/ml penicillin and 100 μg/ml streptomycin at 37° C. in a humidified 5% C02 atmosphere.
We tested the effect of RUNX1 inhibition on the proliferation of a human alveolar basal epithelial cell line (A549), primary human-derived pulmonary alveolar epithelial cells (HPAEpi), and in human-derived primary culture lung fibroblasts (HLF).

[4] = tested on: human lung fibroblasts (HLF); assay: Lactate dehydrogenase (LDH) cell death assay, HLF; type: cell-based; conditions: Ro24-7429 50-200 μM, Ro5-3335 150 μM
Source text: as §1, with “We conducted mechanistic studies in cell culture to examine the cellular and molecular mechanisms underlying the robust effects of RUNX1 inhibition in the protection against bleomycin-induced lung injury. We” for “We”

O=C1CN=C(c2ccc[nH]2)c2cc(Cl)ccc2N1 [Ro5-3335, [7-chloro-5-(2-pyrryl)-3H-1,4 benzodiazapin-2-(H)-one]]
percent live cells compared to vehicle treated [1]: significant reduction | anti-proliferative effect ([1]; A549, 48 hours): 32% | anti-proliferative effect ([1]; A549, 72 hours): 50% | reduction in proliferation [2]: 40% | cell death by LDH analysis [3]: Very low levels of cell death | cell death by LDH analysis [4]: Very low levels of cell death

COC(=O)c1ccc2c(c1)NC(=O)/C2=C(\Nc1ccc(N(C)C(=O)CN2CCN(C)CC2)cc1)c1ccccc1 [nintedanib]
percent live cells compared to vehicle treated [1]: significant reduction
